{
  "source": "paper PMC7777204",
  "about": "“Locking mixed-lineage kinase domain-like protein in its auto-inhibited state prevents necroptosis” (Proceedings of the National Academy of Sciences of the …, 2020)",
  "key": {"MLKL executioner domain": {"target": "T1, MLKL executioner domain (Homo sapiens, UniProt Q8NB16)", "T1 construct": "80 µM MLKL N-terminal executioner domain (residues 1 to 154) was used; GST (thrombin cleavage site) (cleaved yes)", "T1 sequence (Q8NB16 1-154)": "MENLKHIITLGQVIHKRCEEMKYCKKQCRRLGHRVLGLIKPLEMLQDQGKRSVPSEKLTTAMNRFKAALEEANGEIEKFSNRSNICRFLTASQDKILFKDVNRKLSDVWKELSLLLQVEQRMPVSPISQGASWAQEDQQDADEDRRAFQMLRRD", "experiment": "NMR diffusion experiments (hydrodynamic radius)", "type": "biochemical", "protocol": "To further characterize the oligomerized MLKL executioner domain, NMR diffusion experiments were conducted directly succeeding the end of the real-time NMR series (orange dots in Fig. 5A). This was compared with a fresh sample of unliganded MLKL executioner domain (black dots in Fig. 5A).\nIn a next step, we conducted NMR diffusion experiments with NM concentrations above and below the critical micelle concentration of 6 mM, to find out if the increased hydrodynamic radius of the MLKL executioner domain is dependent on the presence of micelles. […] The presence of 500 µM IP6 and 500 µM Cpd 3 had no influence on the hydrodynamic radius of NM (SI Appendix, Fig. S12). […] Therefore, the oligomerization depends on micelles, and the observed species is most likely a micelle-integrated oligomeric MLKL executioner domain. […]\nNMR diffusion experiments were recorded as pseudo two-dimensional experiments with varying gradient strength either as a ^15N-filtered NMR experiment ([42]) (recorded with ^15N-labeled protein). […]\nwhere d is the diffusion constant. […] The hydrodynamic radius was calculated by using the determined diffusion constants of the component of interest (d) and dioxane (ddioxane) and the known hydrodynamic radius of dioxan (2.12 Å) ([23]) using Eq. 4. rH=2.12Å⋅ddioxane/d, [4] […]"}, "[1]": {"target": "T2, human MLKL executioner domain (WT) (Homo sapiens, UniProt Q8NB16)", "T2 construct": "80 µM MLKL N-terminal executioner domain (residues 1 to 154) was used; GST (thrombin cleavage site) (cleaved yes)", "T2 sequence (Q8NB16 1-154)": "T1 sequence (Q8NB16 1-154)", "experiment": "Functional NMR assay (detachment of α-helix 6), WT", "type": "biochemical", "conditions": "WT", "excerpt": "To test the significance of the additional interaction between α-helix 6 and the four-helix bundle provided by the xanthine compounds stacking to the phenyl ring of Phe148, we used a described functional NMR assay ([12]). Binding of phytic acid (IP6) and the detergent β-D-nonylmaltoside (NM) led to the detachment of α-helix 6, which can be monitored in ^1H,^15N-correlation spectra by the altered chemical shift of the Hε1–Nε1 correlation of Trp133 and the backbone N–H correlation of Ala141 ([12]). […] Adding 12 mM NM or 500 µM IP6 led to the appearance of a second very weak peak reporting on the detached α-helix 6 with a population of the activated state (pact) of 1% and 4%, respectively (Fig. 3). […] Combining 12 mM NM and 500 µM IP6 induced a dramatic increase of the population of the detached state (pact 86%). […] To further validate the importance of the π–π stacking interaction between the xanthine and Phe148 in α-helix 6, we carried out the functional NMR assay with the F148A-mutated variant of MLKL. The removal of the phenyl group induced significant CSPs localized in close proximity to the mutation site, due to the removal of ring currents and, therefore, strong electronic changes. […] MLKL F148A was more sensitive to the addition of 12 mM NM, 500 µM IP6, or the combination thereof. In the spectra in the presence of NM and the combination of NM and IP6, a third Trp133 peak appeared, most likely reporting on a state similar to the active state. […] Thus, the stacking interaction of the xanthine core to Phe148 is vital for the inhibitory activity of these MLKL inhibitors.\nFig. 3. (A and B) The region of the NMR ^1H,^15N-correlation spectra of the MLKL executioner domain (protein concentration: 80 µM) containing the cross-peaks of Trp133 Nε1–Hε1 in the auto-inhibited state where α-helix 6 is attached to the four-helix bundle (inact. state) and in the active, detached state (act. state) are shown. The unliganded state is depicted in black, with 12 mM NM in cyan; 500 µM IP6 in orange; 500 µM Cpd 3 in blue; 12 mM NM and 500 µM IP6 in red; and 12 mM NM, 500 µM IP6, and 500 µM Cpd 3 in green. The spectra depicted in A are measured with the WT protein and in B with the F148A variant. […] Dark gray bars correspond to the WT, while light gray bars correspond to the F148A variant. The asterisk means that no active conformation could be detected. Double asterisks indicate data not determined.\nFor the functional NMR assay ^1H,^15N-correlation spectra were recorded on a Bruker Avance III HD 600-MHz NMR spectrometer equipped with a cryogenic QCI probe in 2.5-mm NMR tubes at 298 K. Spectra were recorded with 64 complex points in the indirect dimension, 96 scans, and an interscan delay of 2 s. For the samples, 80 µM MLKL N-terminal executioner domain (residues 1 to 154) was used in a 20 mM sodium phosphate buffer at pH 7.5 containing 150 mM sodium chloride and 1 mM TCEP. For the different conditions, either 500 µM IP6, 12 mM NM, or a combination of the two were used. The xanthine compounds were tested at 500 µM, while NSA, due to limited solubility, was tested only at 200 µM, which is sufficient to saturate MLKL. Spectra were analyzed, and peaks were integrated in CcpNnmr analysis ([39])."}},
  "data": [
    {"smiles": "Cn1c(=O)c2c(nc(S(C)(=O)=O)n2C)n(CC#Cc2cccc(O)c2)c1=O", "note": "[Cpd 3]", "values": [
      {"measurement": "Oligomeric state of the MLKL executioner domain", "setting": "MLKL executioner domain; 12 mM NM + 500 µM IP6 + 500 µM Cpd 3, after 2 d of incubation, 57 Å without compound", "value": "completely monomeric"},
      {"measurement": "Hydrodynamic radius of the MLKL executioner domain", "setting": "MLKL executioner domain; complex with 500 µM Cpd 3, 12 mM NM + 50 µM IP6, after time course, 60 Å without Cpd 3, 19 Å unliganded", "value": 30, "unit": "Å"},
      {"measurement": "Population of the activated state (pact), α-helix 6 detached", "setting": "[1]; 80 µM protein, 12 mM NM + 500 µM IP6 + 500 µM compound, without compound pact 86%", "value": 19, "unit": "%"},
      {"measurement": "Induction of the active state by compound alone", "setting": "[1]; compound alone (Cpd 3 500 µM, NSA 200 µM), no NM/IP6", "value": "did not induce the active state"}
    ]}
  ]
}
